Experimental data: ChEMBL document CHEMBL1149041, “Polypropionates from the Mediterranean Mollusk Elysia timida” (J Nat Prod, 1994)

System: Gambusia affinis
Assay: Ichthyotoxicity against Gambusia affinis at 5 ppm
Type: organism-based
Details: in vivo; call rule not given here

CC/C=C(\C)[C@H]1C(C)=CC(C)=C[C@]1(C)c1oc(OC)c(C)c(=O)c1C
Activity: Active

C/C=C(\C)[C@H]1C(C)=C[C@@]2(C)[C@@H]1[C@]2(C)c1oc(OC)c(C)c(=O)c1C
Activity: Active

CC/C=C(\C)[C@H]1C(C)=C[C@@]2(C)[C@@H]1[C@]2(C)c1oc(OC)c(C)c(=O)c1C [PHOTODEOXYTRIDACHIONE]
Activity: Active
